Reference: patent US20120152149A1, “USE OF 1,3-DIOLS AS BIOCIDES” (BASF SE, priority 2009, published 2012)
Like-named read-outs stand apart in the source and are kept apart here.

How the values were obtained:
Type in all cases: cell-based
E. coli NCIMB 8545 = assay: Microstatic activity, MIC in tryptone soy broth; details: Escherichia coli, NCIMB8545, 30° C., 48 hours
Summary of the method: (§1)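 Diols dissolved at 40 wt% in propylene glycol at 60 °C, diluted in tryptone soy broth to 400 000–3125 ppm, then inoculated (0.1 ml organism per 5 ml). Bacteria incubated 48 h at 30 °C, fungi 5 days at 25 °C. MIC taken as a range between the last concentration showing visible growth/clouding and the first without.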

A. niger IMI 149007 = assay: Microstatic activity, MIC in tryptone soy broth; details: Aspergillus niger, IMI149007, 120 h, 25° C., 5 days
Summary of the method: as §1

P. vulgaris NCIMB 4175 = assay: Microstatic activity, MIC in tryptone soy broth; details: Proteus vulgaris, NCIMB4175, 30° C., 48 hours
Summary of the method: as §1

C. albicans NCPF 3179 = assay: Microstatic activity, MIC in tryptone soy broth; details: Candida albicans, NCPF3179, 120 h, 25° C., 5 days
Summary of the method: as §1

[1] = test system: P. aeruginosa NCIMB 10421; assay: Microstatic activity, MIC in tryptone soy broth; details: Pseudomonas aeruginosa, NCIMB10421, 30° C., 48 hours, lower limit of MIC range, read-out: MIC value (ppm of diol), from
Summary of the method: as §1

S. aureus NCIMB 9578 = assay: Microstatic activity, MIC in tryptone soy broth; details: Staphylococcus aureus, NCIMB9578, 30° C., 48 hours
Summary of the method: as §1

A. niger ATCC 16404 [2] = assay: Preservation stress test, example formulation 2 (roll-on deodorant formulation); details: 1% active substance
Procedure: (§2) Preservation stress tests (PSTs) were carried out in order to determine the preserving activity of the diols. In the preservation stress test, this is simulated through artificial loadings with microorganisms. These can either be inoculated as mixed population or individually in mixtures independent of one another. The inoculated product samples are incubated under defined conditions and, after defined times, samples are taken in order to determine the germ loading. In the case of adequate preservation, the number of microorganisms should, depending on the type, either decrease or remain constant in order to satisfy the requirements specified, e.g. in Ph. Eur. 6.0. To investigate the preserving effect of the diols, application-typical amounts of the diols were incorporated into example formulations. […] [table] These example formulations were used to prepare various mixtures which each comprised 1% active substance or comprised water instead of the active substance as placebo mixtures. These mixtures were in each case inoculated with the test germs such that a germ loading of 10^5-10^6 CFU/g was present in the test mixture. The bacteria were either used individually for the inoculation or as a mixed culture. To determine the starting germ count, immediately after inoculation, an aliquot was taken, diluted in dilution medium (phosphate buffer, 0.07 molar pH 7.4 (+/−0.2), with 1% Tween 80+0.3% soya lecithin), and the surviving germ count was determined in the dilution stages 10^−1 to 10^−3. The inoculated product samples then incubated for a total of 28 d at 20-25° C. After 2 d, 7 d, 14 d and after 28 d, aliquots were taken and diluted in dilution medium (phosphate buffer, 0.07 molar pH 7.4 (+/−0.2), with 1% Tween 80+0.3% soya lecithin). The surviving germ counts were determined in the dilution stages 10^−1 to 10^−4. The reference point taken for determining the reduction in germ count was the respective initial value of the sample. The results were given as logarithmic reductions.

C. albicans ATCC 10231 [3] = assay: as above; details: 1% active substance
Procedure: as §2

S. aureus ATCC 6538 = assay: as above; details: 1% active substance
Procedure: as §2

[4] = test system: series of tested microorganisms (bacteria and fungi); assay: Microstatic activity, highest MIC from the series of tested microorganisms; details: highest measured MIC from the series of tested microorganisms; lower limit; read-out: Maximum MIC value (ppm of diol), from
Summary of the method: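 Diol tested for biocidal effect against a panel of bacteria and fungi; MIC taken as lowest concentration visibly hindering growth versus diol-free sample. Each MIC is a range between the next higher positive-test concentration and the first negative-test concentration; the series value is the highest MIC across organisms.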

A. niger ATCC 16404 [5] = assay: Preservation stress test, example formulation 1 (standard emulsion O/W); details: 1% active substance
Summary of the method: (§3)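 O/W emulsion containing 1% diol (water as placebo), inoculated individually or as mixed culture at 10^5-10^6 CFU/g and held 28 d at 20-25° C. Surviving counts at 0, 2, 7, 14 and 28 d after dilution in neutralising phosphate buffer pH 7.4 with Tween 80/lecithin; expressed as log reduction from initial count.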

C. albicans ATCC 10231 [6] = assay: as above; details: 1% active substance
Summary of the method: as §3

[7] = lower limit of MIC range, read-out: MIC value (ppm of diol), from
[8] = upper limit of MIC range, read-out: MIC value (ppm of diol), to

CCCCCC(CO)(CO)CCC [PPPD, 2-pentyl-2-propylpropane-1,3-diol]
MIC (E. coli NCIMB 8545; [7]): > 50 mg/mL | MIC (E. coli NCIMB 8545; [8]): ≤ 100 mg/mL | MIC (A. niger IMI 149007; [7]): > 6.25 mg/mL | MIC (A. niger IMI 149007; [8]): ≤ 12.5 mg/mL | MIC (P. vulgaris NCIMB 4175; [7]): > 25 mg/mL | MIC (P. vulgaris NCIMB 4175; [8]): ≤ 50 mg/mL | MIC (C. albicans NCPF 3179; [7]): > 6.25 mg/mL | MIC (C. albicans NCPF 3179; [8]): ≤ 12.5 mg/mL | MIC [1]: > 100 mg/mL | MIC (S. aureus NCIMB 9578; [7]): > 50 mg/mL | MIC (S. aureus NCIMB 9578; [8]): ≤ 100 mg/mL | Microbicidal activity given as logarithmic reduction in germ count (A. niger ATCC 16404 [2]; 48 h): 0 log. Red. | Microbicidal activity given as logarithmic reduction in germ count (A. niger ATCC 16404 [2]; 7 d): 0 log. Red. | Microbicidal activity given as logarithmic reduction in germ count (A. niger ATCC 16404 [2]; 14 d): 0 log. Red. | Microbicidal activity given as logarithmic reduction in germ count (C. albicans ATCC 10231 [3]; 48 h): 0 log. Red. | Microbicidal activity given as logarithmic reduction in germ count (C. albicans ATCC 10231 [3]; 7 d): 0 log. Red. | Microbicidal activity given as logarithmic reduction in germ count (C. albicans ATCC 10231 [3]; 14 d): 0 log. Red. | Microbicidal activity given as logarithmic reduction in germ count (S. aureus ATCC 6538; 48 h): 5 log. Red. | Microbicidal activity given as logarithmic reduction in germ count (S. aureus ATCC 6538; 7 d): 5 log. Red. | Microbicidal activity given as logarithmic reduction in germ count (S. aureus ATCC 6538; 14 d): 5 log. Red. | Microbicidal activity given as logarithmic reduction in germ count (S. aureus ATCC 6538; 28 d): 5 log. Red. | MIC [4]: > 100 mg/mL | Microbicidal activity given as logarithmic reduction in germ count (A. niger ATCC 16404 [5]; 48 h): 0 log. Red. | Microbicidal activity given as logarithmic reduction in germ count (A. niger ATCC 16404 [5]; 7 d): 1 log. Red. | Microbicidal activity given as logarithmic reduction in germ count (A. niger ATCC 16404 [5]; 14 d): 1 log. Red. | Microbicidal activity given as logarithmic reduction in germ count (A. niger ATCC 16404 [5]; 28 d): 1 log. Red. | Microbicidal activity given as logarithmic reduction in germ count (C. albicans ATCC 10231 [6]; 48 h): ≧3 log. Red. | Microbicidal activity given as logarithmic reduction in germ count (C. albicans ATCC 10231 [6]; 7 d): 5 log. Red. | Microbicidal activity given as logarithmic reduction in germ count (C. albicans ATCC 10231 [6]; 14 d): 5 log. Red. | Microbicidal activity given as logarithmic reduction in germ count (C. albicans ATCC 10231 [6]; 28 d): 5 log. Red.
